Values after ≈ are worked out from the molar mass of the structure shown.
Key:
[1] = test system: Escherichia coli strain 25922; experiment: Determination of MIC against bacteria (Table 1), E. coli 25922; assay type: cell-based; conditions: Escherichia coli, 25922, 24 h, read-out: minimum inhibitory concentration (MIC), E. coli 25922
Method: (§1) Antibiotic indicator strains Escherichia coli strain 25922, Enterococcus faecalis 29212, Pseudomonas aeruginosa 27853, and Staphylococcus aureus 29213 are obtained from the American Type Tissue Culture Collection (ATCC) in Rockville, Md. The cystic fibrosis isolate, Pseudomonas aeruginosa 39324, is also obtained from ATCC. Bacteria are routinely cultivated in cation-supplemented Mueller-Hinton broth (CAMHB) or agar at 37° C.
(§2) The minimum inhibitory concentration (MIC) of glycosylated and non-glycosylated steroidal polyamines for antibiotic indicator strains is determined by dissolving the test compounds in deionized water to a final concentration of 1 mg per mL. […] These solutions are sterilized by filtration through 0.22 micron syringe filters.
(§3) Stock solutions of individual compounds are serially diluted (two-fold) in sterile CAMHB in 96-well tissue culture dishes (Falcon) and inoculated with antibiotic indicator strains that are prepared as described below.
(§4) Antibiotic indicator strains are grown in 5 mL of CAMHB for 3-4 h at 37° C. with shaking (200 rpm) on a New Brunswick rotary shaker. Bacteria are adjusted to a turbidity that matched a 0.5 McFarland standard (ca. 10^8 CFU per mL) in sterile 0.85% saline. These bacterial suspensions are diluted 1:20 in sterile 0.85% saline and 10 μL (ca. […]) of each suspension is used to inoculate individual wells of a 96 well plate that contained different concentrations of the test compounds. Following inoculation, the plates are sealed with plastic tape, incubated for 24 h at 37° C. and visually inspected for bacterial growth. CAMHB inoculated with each of the antibiotic test strains and uninoculated CAMBH plus each of the test compounds served as positive and negative controls.

[2] = test system: Pseudomonas aeruginosa 27853; experiment: Determination of MIC against bacteria (Table 1), P. aeruginosa 27853; assay type: cell-based; conditions: Pseudomonas aeruginosa, 27853, 24 h, read-out: minimum inhibitory concentration (MIC), P. aeruginosa 27853
Method: as §1, §2, §3, §4

[3] = test system: Enterococcus faecalis 29212; experiment: Determination of MIC against bacteria (Table 1), E. faecalis 29212; assay type: cell-based; conditions: Enterococcus faecalis, 29212, 24 h, read-out: minimum inhibitory concentration (MIC), E. faecalis 29212
Method: as §1, §2, §3, §4

[4] = test system: Staphylococcus aureus 29213; experiment: Determination of MIC against bacteria (Table 1), S. aureus 29213; assay type: cell-based; conditions: Staphylococcus aureus, 29213, 24 h, read-out: minimum inhibitory concentration (MIC), S. aureus 29213
Method: as §1, §2, §3, §4

[5] = test system: Pseudomonas aeruginosa 39324; experiment: Determination of MIC against bacteria (Table 1), P. aeruginosa 39324 (cystic fibrosis isolate); assay type: cell-based; conditions: Pseudomonas aeruginosa, 39324, 24 h, read-out: minimum inhibitory concentration (MIC), P. aeruginosa 39324
Method: as §1, §2, §3, §4

[6] = Solubility in water; assay type: physicochemical; conditions: trifluoroacetate salt
Method: (§5) To a solution of spermine (0.8 g, 2 mmol) and triethylamine (0.3 mL) in 5 mL of DMF is added dropwise the N-oxysuccinimidechenodeoxycholate (1.0 g, 2 mmol) in 5 mL of DMF. The mixture is stirred overnight at room temperature, then poured into DCM (100 mL). The precipitate of the hydroxysuccinimide is filtered, and the filtrate is evaporated to give a liquid phase, which is poured into water (100 mL). The precipitate of the product is obtained. It is dissolved in MeOH (5 mL) and passed through a CHP-20 reverse-phase column. A […] in water solvent system is used to elute the product. The solvent is removed by evaporation, and the residue is dissolved in 1 mL of trifluoroacetic acid. The resulting solution is diluted up to 10 mL with water, filtered, and the filtrate subsequently lyophilized to afford 0.9 g (50% yield) of a solid (m.p. 96°-100° C.). […] A 5% solution of the trifluoroacetate salt of the chenodeoxycholic acid-spermine conjugate is stable at room temperature over about 12-24 h, after which a precipitate of the base separates as a slurry. TLC (MeOH:i-PrNH2 :DCM 1:1:2) Rf 0.7. IR (KBr): 3406, 2939, 2869, 1778 (COOH), 1680 (CONH--), 1553, 1458, 1196, 834, 722 cm^-1. ^1 H NMR (D2 O): δ3.75 (s, 1H), 3.4 (s, 1H), 2.8-3.15 (m, 12H), 2.2-1.2 (m, 39H), 0.9 (d, 3H), 0.86 (s, 3H), 0.55 (s, 3H). Fab MS: (M+Na^+)=598. Anal. Calc. for C34 H64 N4 O3.3CF3 COOH: C 52.5; H 7.29; N 6.09. […]

[7] = Stability of a 5% solution of the trifluoroacetate salt at room temperature; assay type: physicochemical
Method: as §5

[8] = test system: E. coli 25922; experiment: Augmentation assay: MIC of erythromycin (Table 2), E. coli 25922; assay type: cell-based; conditions: Escherichia coli, 25922, 24 h, read-out: MIC of erythromycin, E. coli 25922
Method: (§6) Stock solutions 1-2 mg/mL of test compounds are prepared in distilled water, filter-sterilized through a […] filter and diluted in CAMHB to the desired starting concentration. Aliquots of each test compound (0.1 mL), at 2× the final concentration, are added to the first rows of 96 well plates. The remaining wells of these plates are charged with 0.1 mL aliquots of each test compound at the desired final concentration. Subsequently, 0.1 mL of solutions of erythromycin, gentamicin, or vancomycin, prepared in CAMHB, are added to the first rows of these plates and serially diluted.
(§7) The wells are inoculated in duplicate with each of four antibiotic indicator strains prepared as described previously above. The final concentrations of antibiotics tested in these experiments range from 0.185-250 μg per mL. Plates containing each of the antibiotics serially diluted in CAMHB alone are also inoculated with antibiotic indicator strains to determine the MIC of erythromycin, gentamicin and vancomycin in the absence of the compounds of the invention. The plates are sealed with plastic tape, incubated in for 24 h at 37° C., visually inspected for bacterial growth. The MIC of erythromycin, gentamicin and vancomycin for each of the indicator strains in the presence or absence of test compound is subsequently determined.

[9] = test system: P. aeruginosa 27853; experiment: Augmentation assay: MIC of erythromycin (Table 2), P. aeruginosa 27853; assay type: cell-based; conditions: Pseudomonas aeruginosa, 27853, 24 h, read-out: MIC of erythromycin, P. aeruginosa 27853
Method: as §6, §7

[10] = test system: P. aeruginosa 39324; experiment: Augmentation assay: MIC of erythromycin (Table 2), P. aeruginosa 39324; assay type: cell-based; conditions: Pseudomonas aeruginosa, 39324, 24 h, read-out: MIC of erythromycin, P. aeruginosa 39324
Method: as §6, §7

SMILES | MIC [1] | MIC [2] | MIC [3] | MIC [4] | MIC [5] | solubility in water [6] | stability of 5% solution, time before a precipitate of the base separates [7] | MIC [8] | MIC [9] | MIC [10]
C[C@H](CCC(=O)NCCCNCCCCNCCCN)[C@H]1CC[C@H]2[C@@H]3[C@H](O)C[C@@H]4C[C@H](O)CC[C@]4(C)[C@H]3CC[C@]12C [Compound H, 3α,7α-dihydroxy-12-deoxy-5β-cholan-24-oic acid, N-(4,9-diaza-12-aminododecyl)amide] | 25 µg/mL (≈ 43.3 µM) | 12.5 µg/mL (≈ 21.7 µM) | 3.12 µg/mL (≈ 5.41 µM) | 6.25 µg/mL (≈ 10.8 µM) | 50 to 100 µg/mL (≈ 86.7 to 173 µM) | soluble in water | 12 to 24 h |  |  | 
CC[C@H]1OC(=O)[C@H](C)[C@@H](O[C@H]2C[C@@](C)(OC)[C@@H](O)[C@H](C)O2)[C@H](C)[C@@H](O[C@@H]2O[C@H](C)C[C@H](N(C)C)[C@H]2O)[C@](C)(O)C[C@@H](C)C(=O)[C@H](C)[C@@H](O)[C@]1(C)O [Erythromycin, erythromycin] |  |  |  |  |  |  |  | 125 µg/mL | > 250 µg/mL | > 250 µg/mL
